Measured values as given in publication PMC9227536, “Prediction of Pharmacokinetics of IDP-73152 in Humans Using Physiologically-Based Pharmacokinetics” (Pharmaceutics, 2022).
Read-outs that look alike come from different tables or passages of the source.

What was measured:
[1] = PBPK model prediction, dogs
Source text: In this study, the PBPK model involving ten tissues (i.e., adipose tissue, brain, heart, kidney, liver, lung, muscle, skin, spleen, and testis (Figure 2; see Appendix A for detailed mathematical descriptions)) was considered to be applicable for the description of IDP-73152 PK in rats, mice, dogs, and humans. Physiological variables were obtained from the literature; they are summarized in Supplementary Table S1.
For the estimation of the volume of the distribution of IDP-73512 in rats, the steady-state volume of distribution (Vss) was calculated using the following equation [30]:(10) Vss=VP+Vrbc×EP+∑VT,i×KP,ss,i, where Vp, Vrbc, and VT,i are the volumes of plasma, red blood cells, and tissues, respectively. The erythrocyte-to-plasma partition coefficient (EP), is calculated by EP=1+(BP−1)/Hematocrit . The KP,ss for each tissue obtained from Equation (8) was applied for Equation (10). For the case of non-eliminating organs, the KP,ss was regarded as the tissue-to-plasma partition coefficient (KP) in PBPK equations (Appendix A). For the case of the liver—i.e., the eliminating organ—the KP,ss (KP,ss,LI) had to be corrected to account for the equilibrium being altered by the elimination. Thus, a PBPK-operative KP for liver (KP,LI) was calculated using the following equation [31]:(11) KP,LI=KP,ss,LI/(1−ER), where ER is the hepatic extraction ratio of the compound (i.e., CLh/(QLI·BP)). In this study, a compartmental absorption and transit (CAT) model consisting of stomach and five intestinal segments was considered for the description of the intestinal absorption kinetics of IDP-73152 in animals and humans. We assumed that the initial compartment denoted the stomach (Equation (12)), and the subsequent three compartments represented the small intestine and two additional compartments for the large intestine (i.e., a total of six compartments, with absorption occurring in the five intestinal compartments) (Equation (13)). The differential equations describing the rate of drug absorption and transit in the gastrointestinal tract can be written as:
For the intestine, viz. i = 1~5:(13) dMi/dt=Kt,i−1×Mi−1−(Kt,i+ka,i)×Mi, where Ms is the amount of drug in the stomach; Mi is the amount of drug in the i-th intestinal segment; Ks, Kt,i, and ka,i are the rate constants of gastric emptying, intestinal transit, and the segmental absorption rate, respectively. In Equation (13) at i = 1, Kt,0 and M0 represent Ks and Ms, respectively. […] The absorption rate constant in the intestinal segments in humans, ka,i,human, was assumed to be identical along the segments and calculated as follows: first, Peff was empirically estimated from the Caco-2 cell permeability (Papp):(14) LogPeff=0.4926×LogPapp−0.1454 […]

[2] = Unbound fraction in plasma (rapid equilibrium dialysis), mouse; type: in vitro ADME; conditions: mice plasma, 0.3, 1, 3 μM, RED 5 h, read-out: fu,p
Method: The unbound fractions of IDP-73152 in various matrices were measured according to the manufacturer’s instructions for the rapid equilibrium dialysis (RED) device (ThermoFisher Scientific, Waltham, MA, USA). Briefly, IDP-73152 was added to the plasma or the microsomal/hepatocyte incubation buffer from various species (i.e., mouse, rat, dog, and human for microsomal incubation; rat for hepatocyte incubation) to obtain final concentrations of the compound at 0.3, 1, and 3 μM. After the membrane insert was placed in the RED plate, the solution containing IDP-73152 was added (400 µL) to the sample chamber, and the dialysis buffer (600 μL) was added to the buffer chamber. The RED plate was sealed with parafilm and then incubated at 37 °C in the orbital shaker (Lab Companion, Daejeon, Korea) at 100 rpm for 5 h. After a 50 μL aliquot was aspirated from both the sample and buffer chambers, an equal volume of protein-free buffer or blank medium was replaced in the aspirated sample or buffer to render the matrices compositionally identical. The IDP-73152 concentration in the buffer/sample chambers (i.e., CBuffer Chamber and CSample Chamber) was determined by an assay. Thus, the fraction unbound was defined as:(2) % Fraction unbound=(CBuffer Chamber/CSample Chamber)×100%

[3] = Caco-2 cell bidirectional permeability; type: in vitro ADME; conditions: human; for recovery at 2 h, 10 µM: Caco-2, Caco-2
Method: In this study, bidirectional permeability assays were conducted as described in the literature, with minor modifications. Briefly, Caco-2 cells (KCLB, Seoul, Korea) were seeded on Transwell® inserts (Corning Inc., Glendale, AZ, USA) and grown in a humidified atmosphere of 5% CO2 at 37 °C to form a confluent monolayer over 3 weeks. On day 21, after seeding, the integrity of the cell monolayer was assessed by measuring the transepithelial electrical resistance using an epithelial voltohmmeter (EVOM and EVOMX, World Precision Instruments, Sarasota, FL, USA). The medium in donor and receiver compartments was then replaced with 5 mM of HEPES in HBSS, and preincubated for 10 min at 37 °C. The permeability study was initiated by adding IDP-73152 (in a 10 µM final concentration in the chambers) to an apical insert (for apical-to-basolateral (A-to-B) transport) or a basolateral chamber (for basolateral-to-apical (B-to-A) transport). Samples were collected from both compartments at 30 min intervals up to 2 h. Throughout the study, the temperature and atmosphere of the compartments were maintained at 37 °C and 5% CO2. The samples were stored at −80 °C until analysis and the concentration of the compound was determined by LC-MS/MS assay for IDP-73152 [10]. The apparent permeability coefficient (Papp, in cm/s) was calculated using the following equation:(1) Papp=(dQ/dt/C0×A) where dQ/dt is the rate of IDP-73152 transport across monolayers (nmol/s), C0 is the initial concentration of IDP-73152 (10 μM), and A is the surface area of the insert (1.12 cm^2). The efflux ratio of IDP-73152 in the Caco-2 cell system was calculated by the ratio of Papp from B-to-A transport (Papp,B-to-A) to Papp from A-to-B transport (Papp,A-to-B).

SMILES: CC(C)(C)[C@H](NC(=O)[C@H](CC1CCCC1)CN(O)C=O)C(=O)N1CCC(NCc2cc(F)c(F)cc2F)CC1 [IDP-73152]
- AUC ratio ([1]; intravenous 10 mg/kg): 1.13
- Cmax ratio without the scaling (SF) ([1]; oral): 0.760
- AUC ratio ([1]; oral 20 mg/kg): 1.08
- Cmax ratio ([1]; oral 20 mg/kg): 0.832
- fraction unbound at 5 h [2]: 0.0562 ± 0.0087
- recovery at 2 h, 10 µM ([3]; read-out: recovery, A to B transport): 96.6 ± 5.1%
- recovery at 2 h, 10 µM ([3]; read-out: recovery, B to A transport): 93.4 ± 3%
- efflux ratio at 2 h, 10 µM ([3]; Caco-2, Papp,B-to-A / Papp,A-to-B): < 2
- Papp A→B at 2 h, 10 µM ([3]; Caco-2 monolayer, 10 µM, apical-to-basolateral): 31.2 ± 1.93 ×10⁻⁶ cm/s
- Papp B→A at 2 h, 10 µM ([3]; Caco-2 monolayer, 10 µM, basolateral-to-apical): 49.5 ± 3.5 ×10⁻⁶ cm/s
